Patent US20250120967A1, “TYROSINE KINASES INHIBITORS AND USES THEREOF” (GREAT NOVEL THERAPEUTICS BIOTECH & MEDICALS CORPORATION, priority 2023, published 2025)

What was measured:
[1] = test system: A549 cells; assay: In vitro cytotoxicity assay (MTT, 72 h); assay type: cell-based; conditions: Homo sapiens, growth inhibition
Protocol: (§1) Six different cell lines were used, including human breast cancer cell lines MDA-MB-231 (6×10^3) and MDA-MB-453 (2.4×10^4), human colorectal cell line SW48 (2.4×10^4), human breast epithelial cell line M10 (6×10^3), human cancer cell line A549 (1.4×10^3), and murine colorectal carcinoma tumors CT26 (6×10^3), which were seeded in a 96-well plate. […] After 72 h, MTT assay (Cayman™) was used to determine the cellular viability.

[2] = test system: M10 cells; assay: In vitro cytotoxicity assay (MTT, 72 h); assay type: cell-based; conditions: growth inhibition, human normal cell line
Protocol: as §1

[3] = test system: MDA-MB-231 cells; assay: In vitro cytotoxicity assay (MTT, 72 h); assay type: cell-based; conditions: Homo sapiens, growth inhibition
Protocol: as §1

[4] = test system: MDA-MB-453 cells; assay: In vitro cytotoxicity assay (MTT, 72 h); assay type: cell-based; conditions: Homo sapiens, growth inhibition
Protocol: as §1

[5] = test system: SW48 cells; assay: In vitro cytotoxicity assay (MTT, 72 h); assay type: cell-based; conditions: Homo sapiens, growth inhibition
Protocol: as §1

[6] = test system: CT-26 cells; assay: In vitro cytotoxicity assay (MTT, 72 h); assay type: cell-based, murine; conditions: Mus musculus, CT26, growth inhibition
Protocol: as §1

[7] = test system: CT26 tumor; assay: Experimental tumor model and therapies, CT26 tumor-bearing mice;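 further: male Balb/c mice bearing CT26 grafts in the back, treated once tumors reached roughly 250–300 mm^3, tumor volume measured twice weekly, response graded by fold growth after treatment end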
Protocol: LLC1 was grown at 37° C. under humidified air supplemented with CO2 in DMEM (#10-013-CM, Corning®) containing 10% heat inactivated fetal calf serum, and 1× concentration of MycoZap Antibiotics. CT26 was grown at 37° C. under humidified air supplemented with CO2 in RPMI1640 (cat. #10-040-CM, Corning®) containing 10% heat inactivated fetal calf serum, and 1× concentration of MycoZap Antibiotics. After the cancer cell culture was completed, it was implanted (1×10^6 cells/mouse) into the back of the mouse for growth.
Six- to eight-week-old male Balb/c mice (National Laboratory Animal Center, Taiwan) were used for all animal experiments. […] Tumors were allowed to grow for 10-12 days (tumor size about 250-300 mm^3) before randomization and treatment. The tumor volume of the mice was measured once every three or four days (twice/week). Animals were euthanized when tumors reached more than 3000 mm^3 in diameter. […] Relapse/recurrence was defined as when tumor growth reappeared and tumor size reached at least 5 fold in mice with CR or PR response after secondary tumor assessment. In this study, we defined Complete Response (CR, <0.5 time tumor growth in the tumor bearing mice at tumor assessment after the end of treatment); Partial Response (PR, tumor size ≥0.5 time tumor growth, but <1 time tumor growth in the tumor bearing mice at tumor assessment after the end of treatment); Stable Disease (SD, ≥1 time tumor growth, but <5 times tumor growth in the tumor bearing mice at tumor assessment after the end of treatment); and Progressive Disease (PD, ≥5 times tumor growth in the tumor bearing mice at tumor assessment after the end of treatment) for the evaluation of treatment efficacy.

[8] = FIG. 7E, Cbo-23-K30 30 mg/kg, Zanzalintinib hemifumarate 30 mg/kg, GNTbm-38-2HCL 40 mg/kg
[9] = FIG. 3E, oral 12 days, Cabozantinib 30 mg/kg, Cbo-20 30 mg/kg, GNTbm-38-K30 40 mg/kg
[10] = FIG. 5E, Cbo-23 30 mg/kg, Regorafenib 30 mg/kg, GNTbm-38-K30 20 mg/kg in combination, 5 mg/kg alone

Compound | IC50 [1] | IC50 [2] | IC50 [3] | IC50 [4] | IC50 [5] | IC50 [6] | other results
COc1cc2nccc(Oc3ccc(NC(=O)C4(NC(=O)c5ccc(F)cc5)CC4)cc3F)c2cc1O [Cbo-07, 4-Fluoro-N-(1-((3-fluoro-4-((6-hydroxy-7-methoxyquinolin-4-yl)oxy)phenyl)carbamoyl)cyclopropyl)benzamide] | 1.49 ± 0.21 µM | 4.44 ± 1.51 µM | 5.07 ± 1.04 µM | > 25 µM | 0.74 ± 0.13 µM | – | –
COc1cc2nccc(Oc3ccc(NC(=O)C4(NC(=O)c5ccc(F)cc5)CC4)cc3F)c2cc1Oc1ccc(N)cn1 [Cbo-06] | 6.89 ± 1.61 µM | 5.59 ± 0.46 µM | > 25 µM | > 25 µM | 8.76 ± 0.52 µM | – | –
CC(CN)NC(=O)c1cc(Oc2ccc(N(C(=O)C3(C(N)=O)CC3)c3ccc(F)cc3)cc2F)ccn1 (centres unmarked) [Cbo-22, N-(4-((2-((1-aminopropan-2-yl)carbamoyl)pyridin-4-yl)oxy)-3-fluorophenyl)-N-(4-fluorophenyl)cyclopropane-1,1-dicarboxamide] | 11.2 ± 1.18 µM | 15.1 ± 0.44 µM | 16.1 ± 0.19 µM | > 25 µM | 21.9 ± 0.96 µM | > 25 µM | ORR ([7]; FIG. 4D, Cabozantinib 30 mg/kg, Cbo-22 30 mg/kg, GNTbm-38-K30 40 mg/kg): 0%; Survival Rate ([7]; FIG. 4E, Cabozantinib 30 mg/kg, Cbo-22 30 mg/kg, GNTbm-38-K30 40 mg/kg): 0%
Nc1ccccc1NC(=O)c1ccc(NC(=O)C/C=C/c2cccnc2)cc1 [GNTbm-38-2HCL, (E)-N-(2-aminophenyl)-4-(4-(pyridin-3-yl)but-3-enamido)benzamide] | – | – | – | – | – | – | CR (number of mice) [7, 8]: 0; ORR [7, 8]: 0%; PD (number of mice) [7, 8]: 9; PR (number of mice) [7, 8]: 0
COc1cc2nccc(Oc3ccc(N(C(=O)C4(C(N)=O)CC4)c4ccc(F)cc4)cc3F)c2cc1OC [Cbo-20, N-(4-((6,7-dimethoxyquinolin-4-yl)oxy)-3-fluorophenyl)-N-(4-fluorophenyl)cyclo-propane-1,1-dicarboxamide] | 3.34 ± 0.69 µM | 5.47 ± 1.73 µM | 4.81 ± 1.16 µM | 14.1 ± 2.06 µM | 2.51 ± 0.18 µM | 8.89 ± 0.24 µM | CR (number of mice) [7, 9]: 2; ORR [7, 9]: 50%; PD (number of mice) [7, 9]: 2; PR (number of mice) [7, 9]: 2; Survival Rate ([7]; FIG. 3F, Cabozantinib 30 mg/kg, Cbo-20 30 mg/kg, GNTbm-38-K30 40 mg/kg): 25%; recurrence rate ([7]; FIG. 3G, day 60, Cabozantinib 30 mg/kg, Cbo-20 30 mg/kg, GNTbm-38-K30 40 mg/kg): 75%
COc1cc2nccc(Oc3ccc(NC(=O)C4(NC(=O)c5ccc(F)cc5)CC4)cc3F)c2cc1Oc1ccc(N)cc1C [Cbo-09] | 6.89 ± 1.61 µM | 0.99 ± 0.044 µM | 12.6 ± 0.98 µM | 9.28 ± 0.66 µM | 1.02 ± 0.008 µM | – | –
COc1cc2nccc(Oc3ccc(C(=O)NC4(C(=O)Nc5ccc(F)cc5)CC4)cc3F)c2cc1OC [Cbo-03, 4-((6,7-diMethoxyquinolin-4-yl)oxy)-3-fluoro-N-(1-((4-fluorophenyl)carbamoyl)cyclopropyl)benzamide] | 12.8 ± 6.7 µM | 16.2 ± 1.44 µM | 12.7 ± 1.37 µM | 17.9 ± 1.34 µM | > 25 µM | – | –
Zanzalintinib hemifumarate | – | – | – | – | – | – | CR (number of mice) [7, 8]: 0; ORR [7, 8]: 0%; PD (number of mice) [7, 8]: 9; PR (number of mice) [7, 8]: 0; tumor inhibition rate at day 28 ([7]; FIGS. 7B, 7C, Cbo-23-K30 30 mg/kg, Zanzalintinib hemifumarate 30 mg/kg, GNTbm-38-2HCL 40 mg/kg): 2%
CNC(=O)c1cc(Oc2ccc(NC(=O)Nc3ccc(Cl)c(C(F)(F)F)c3)c(F)c2)ccn1 [Regorafenib] | – | – | – | – | – | – | CR (number of mice) [7, 10]: 0; ORR [7, 10]: 0%; PD (number of mice) [7, 10]: 7; PR (number of mice) [7, 10]: 0; Survival Rate ([7]; FIG. 5F, Cbo-23 30 mg/kg, Regorafenib 30 mg/kg, GNTbm-38-K30 20 mg/kg in combination, 5 mg/kg alone): 0%
COc1cc2nccc(Oc3ccc(NC(=O)C4(C(=O)Nc5ccc(F)cc5)CC4)cc3F)c2cc1C(=O)NC(C)CN (centres unmarked) [Cbo-24, O-phenyl-N-(4-fluorophenyl)cyclopropane-1,1-dicarboxamide] | 16.2 ± 0.95 µM | > 25 µM | 15.7 ± 0.33 µM | 17 ± 0.96 µM | 8.75 ± 0.55 µM | > 25 µM | –
COc1cc2nccc(Oc3ccc(NC(=O)C4(NC(=O)c5ccc(F)cc5)CC4)cc3F)c2cc1Oc1ccc(N)cc1 [Cbo-05] | 2.51 ± 0.21 µM | 1.17 ± 0.053 µM | 7.84 ± 1.34 µM | 8.92 ± 1.49 µM | 1.86 ± 0.059 µM | 8.9 ± 0.61 µM | –
COc1cc2nccc(Oc3ccc(NC(=O)C4(NC(=O)c5ccc(F)cc5)CC4)cc3F)c2cc1Oc1cccc(N)c1 [Cbo-08] | 2.6 ± 1.82 µM | 1.83 ± 0.72 µM | > 25 µM | > 25 µM | 3.51 ± 0.48 µM | – | –
